These results are taken from PubChem BioAssay (NCI).

Some test systems named below: UACC-62 melanoma; CCRF-CEM leukemia; HL-60(TB) leukemia; NCI/ADR-RES ovarian; SK-MEL-5 melanoma; EKVX NSCLC; SR leukemia; 786-0 renal; SNB-75 CNS; MALME-3M melanoma.
Holding throughout (assay): NCI tumour cell line growth inhibition, 48 h

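Briefly, cells in 96-well plates were exposed to five compound concentrations for 48 h, and endpoints were estimated by linear interpolation. GI50: concentration for 50% inhibition of growth. TGI: total growth inhibition.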

Turning to `CCCc1cc(O)c2c3c(c(=O)oc2c1)CN(C)CC3`, the GI50 was 47.2 µM with UACC-62 melanoma; 69.1 µM in the test with CCRF-CEM leukemia; 50.2 µM in the test with HL-60(TB) leukemia; > 100 µM in the test with NCI/ADR-RES ovarian; 19 µM with SK-MEL-5 melanoma; > 100 µM with EKVX NSCLC. For the same compound, the GI50 in the test with SR leukemia is 36.1 µM; with 786-0 renal it was 61.7 µM; in the test on SNB-75 CNS it was 22.1 µM; in the test on MALME-3M melanoma, 35.1 µM. Besides, the TGI with UACC-62 melanoma was > 100 µM; in the test with CCRF-CEM leukemia, > 100 µM; in the test with HL-60(TB) leukemia, > 100 µM; in the test with NCI/ADR-RES ovarian, > 100 µM; in the test on SK-MEL-5 melanoma, 44.7 µM; with EKVX NSCLC it was > 100 µM. The TGI with SR leukemia, with 786-0 renal, with SNB-75 CNS and with MALME-3M melanoma was > 100 µM in each case.
On to `CCOc1ccc(-c2cnnn2-c2nonc2-n2cccc2)cc1`, for which the GI50 in the test on UACC-62 melanoma is 0.379 µM; in the test with CCRF-CEM leukemia, 0.296 µM; with HL-60(TB) leukemia, 0.309 µM; in the test with NCI/ADR-RES ovarian, 0.139 µM; in the test on SK-MEL-5 melanoma, 0.245 µM; in the test with EKVX NSCLC, 0.569 µM. For the same compound, the GI50 is 0.104 µM with SR leukemia, 0.416 µM with 786-0 renal, 0.138 µM in the test on SNB-75 CNS and 0.383 µM in the test with MALME-3M melanoma. The TGI in the test with UACC-62 melanoma was > 60.3 µM; with CCRF-CEM leukemia, > 100 µM; with HL-60(TB) leukemia, 13.4 µM; with NCI/ADR-RES ovarian, > 38.1 µM; with SK-MEL-5 melanoma, 12.4 µM; in the test on EKVX NSCLC, > 100 µM. For the same compound, the TGI in the test on SR leukemia was 41.4 µM; with 786-0 renal it was > 100 µM; with SNB-75 CNS, 0.527 µM; with MALME-3M melanoma, > 78.3 µM.
For `O=C(Nc1ccccc1)c1nn(-c2cc(S(=O)(=O)O)c([N+](=O)[O-])cc2Cl)[n+](-c2cc(S(=O)(=O)[O-])c([N+](=O)[O-])cc2Cl)n1`, the TGI in the test on UACC-62 melanoma, in the test with CCRF-CEM leukemia, with HL-60(TB) leukemia, with NCI/ADR-RES ovarian, in the test with SK-MEL-5 melanoma and in the test on EKVX NSCLC was > 100 µM each time. Besides, the TGI with SR leukemia, in the test with 786-0 renal, in the test with SNB-75 CNS and in the test with MALME-3M melanoma was > 100 µM throughout.
Consider `Cc1nc(-c2ccccc2)c(Cc2ccccc2O)c(=O)[nH]1`, for which the TGI in the test on UACC-62 melanoma, in the test with CCRF-CEM leukemia, with HL-60(TB) leukemia, in the test with NCI/ADR-RES ovarian, in the test with SK-MEL-5 melanoma and in the test on EKVX NSCLC was > 100 µM in each case. Also, the TGI in the test on SR leukemia is > 100 µM; with 786-0 renal, > 100 µM; in the test on SNB-75 CNS, 97.9 µM; in the test with MALME-3M melanoma, > 100 µM.
For the compound `COc1cc(-n2cc(-c3ccc(F)cc3)nc2SCc2ccccc2)cc(OC)c1OC`, the GI50 in the test with UACC-62 melanoma is > 100 µM; in the test with CCRF-CEM leukemia it was 17.7 µM; with HL-60(TB) leukemia, > 100 µM; in the test on NCI/ADR-RES ovarian, > 100 µM; in the test with SK-MEL-5 melanoma, 54.8 µM; in the test with EKVX NSCLC, > 100 µM. Besides, the GI50 with SR leukemia, in the test with 786-0 renal, in the test on SNB-75 CNS and in the test with MALME-3M melanoma was > 100 µM in each case. The TGI in the test with UACC-62 melanoma is > 100 µM; in the test on CCRF-CEM leukemia, 43.8 µM; in the test with HL-60(TB) leukemia, > 100 µM; in the test on NCI/ADR-RES ovarian, > 100 µM; with SK-MEL-5 melanoma, > 100 µM; in the test on EKVX NSCLC, > 100 µM. Moreover, the TGI in the test on SR leukemia, in the test on 786-0 renal, in the test with SNB-75 CNS and with MALME-3M melanoma was > 100 µM in each case.
With `Cc1ccc2c(c1)c1nc3cc(C)c(C)cc3nc1n2CCN(C)C`, the GI50 in the test on UACC-62 melanoma was 1.59 µM; in the test with CCRF-CEM leukemia, 2.05 µM; in the test with HL-60(TB) leukemia it was 2.95 µM; in the test on NCI/ADR-RES ovarian it was 1.15 µM; with SK-MEL-5 melanoma it was 1.77 µM; in the test on EKVX NSCLC, 2.95 µM. The GI50 is 1.06 µM in the test with SR leukemia, 2.56 µM with 786-0 renal, 1.5 µM in the test on SNB-75 CNS and 1.73 µM with MALME-3M melanoma. Further, the TGI turned out to be 3.57 µM in the test on UACC-62 melanoma; 10.6 µM with CCRF-CEM leukemia; 9.65 µM with HL-60(TB) leukemia; 5.42 µM with NCI/ADR-RES ovarian; 3.18 µM in the test with SK-MEL-5 melanoma; 11.4 µM in the test with EKVX NSCLC. Besides, the TGI in the test with SR leukemia amounted to 14.2 µM; in the test on 786-0 renal it was 10.8 µM; in the test on SNB-75 CNS it was 6.41 µM; in the test on MALME-3M melanoma, 3.76 µM.
Consider `N/C(=C\C(=O)n1nc(-c2ccccc2)cc1N)c1ccccc1`, for which the GI50 with UACC-62 melanoma is 3.09 µM; in the test on CCRF-CEM leukemia it was 1.34 µM; with HL-60(TB) leukemia, 1.88 µM; with NCI/ADR-RES ovarian it was 3.2 µM; in the test with SK-MEL-5 melanoma it was 3.01 µM; in the test with EKVX NSCLC, 5.57 µM. Also, the GI50 is 1.59 µM in the test on SR leukemia, 7.72 µM in the test on 786-0 renal, 3.72 µM in the test with SNB-75 CNS and 7.51 µM with MALME-3M melanoma. Further, the TGI in the test on UACC-62 melanoma is 19.2 µM; in the test on CCRF-CEM leukemia it was 13.5 µM; in the test with HL-60(TB) leukemia it was 5.99 µM; in the test with NCI/ADR-RES ovarian it was > 100 µM; in the test with SK-MEL-5 melanoma it was 12.1 µM; in the test with EKVX NSCLC, 35.9 µM. Moreover, the TGI in the test with SR leukemia worked out at 7.38 µM; in the test with 786-0 renal it was 44.3 µM; with SNB-75 CNS, 52.1 µM; in the test with MALME-3M melanoma, 25.2 µM.
